Among the data in patent US8450361B2, “Substituted indole and azaindole oxoacetyl piperazinamide derivatives” (priority 2010, dated 2013) are EC50 values, retold here.

In the assay the test system is HIV-1. Nature of the assay: Single-round infectious HIV-1 luciferase reporter virus infection of HeLa CD4 cells. The following applies: Human immunodeficiency virus 1, HeLa, 72 h, read-out: EC50 Group from Table 1. The format is cell-based. Here is the method: • Virus production—Human embryonic Kidney cell line, 293T, was propagated in Dulbecco's Modified Eagle Medium (Invitrogen, Carlsbad, Calif.) containing 10% fetal Bovine serum (FBS, Sigma, St. Louis, Mo.). • Virus infection—Human epithelial cell line, HeLa, expressing the HIV-1 receptor CD4 was propagated in Dulbecco's Modified Eagle Medium (Invitrogen, Carlsbad, Calif.) containing 10% fetal Bovine serum (FBS, Sigma, St. Louis, Mo.) and supplemented with 0.2 mg/mL Geneticin (Invitrogen, Carlsbad, Calif.). Virus—Single-round infectious reporter virus was produced by co-transfecting human embryonic Kidney 293 cells with an HIV-1 envelope DNA expression vector and a proviral cDNA containing an envelope deletion mutation and the luciferase reporter gene inserted in place of HIV-1 nef sequences (Chen et al, Ref 41). Transfections were performed using lipofectAMINE PLUS reagent as described by the manufacturer (Invitrogen, Carlsbad, Calif.). Experiment • 1. HeLa CD4 cells were plated in 96 well plates at a cell density of 1×10^4 cells per well in 100 μl Dulbecco's Modified Eagle Medium containing 10% fetal Bovine serum and incubated overnight. • 2. Compound was added in a 2 μl dimethylsulfoxide solution, so that the final assay concentration would be ≦10 μM. • 3. 100 μl of single-round infectious reporter virus in Dulbecco's Modified Eagle Medium was then added to the plated cells and compound at an approximate multiplicity of infection (MOI) of 0.01, resulting in a final volume of 200 μl per well. • 4. Virally-infected cells were incubated at 37 degrees Celsius, in a CO2 incubator, and harvested 72 h after infection. • 5. Viral infection was monitored by measuring luciferase expression from viral DNA in the infected cells using a luciferase reporter gene assay kit, as described by the manufacturer (Roche Molecular Biochemicals, Indianapolis, Ind.). Infected cell supernatants were removed and 50 μl of lysis buffer was added per well. After 15 minutes, 50 μl of freshly-reconstituted luciferase assay reagent was added per well. Luciferase activity was then quantified by measuring luminescence using a Wallac microbeta scintillation counter. • 6. The percent inhibition for each compound was calculated by quantifying the level of luciferase expression in cells infected in the presence of each compound as a percentage of that observed for cells infected in the absence of compound and subtracting such a determined value from 100. • 7. An EC50 provides a method for comparing the antiviral potency of the compounds of this invention. The effective concentration for fifty percent inhibition (EC50) was calculated with the Microsoft Excel Xlfit curve fitting software. For each compound, curves were generated from percent inhibition calculated at 10 different concentrations by using a four parameter logistic model (model 205). Table 1 is the key for the data in Table 2. Results
(In general: A reporter such as luciferase makes a cellular process visible.)

The EC50 is the concentration that produces a half-maximal response. `CCOC(=O)CCCNC(=O)Nc1ncc(F)c2c(C(=O)C(=O)N3CCN(C(=O)c4ccccc4)CC3)c[nH]c12` [P-C-26]: the EC50 was < 1000 nM. Under `C[C@@H]1CN(C(=O)c2ccccc2)CCN1C(=O)C(=O)c1c[nH]c2c(NC(=O)NCCCCNC(=O)Nc3ccc(B(O)O)cc3)cccc12` [P-C-103] stands < 1000 nM; under `C[C@@H]1CN(C(=O)c2ccccc2)CCN1C(=O)C(=O)c1c[nH]c2c(NC(=O)NCCCCCCNC(=O)Nc3ccc(B(O)O)cc3)cccc12` [P-C-106], < 1000 nM; under `C[C@@H]1CN(C(=O)c2ccccc2)CCN1C(=O)C(=O)c1c[nH]c2c(NC(=O)NCCCCCCCCNC(=O)Nc3ccc(B(O)O)cc3)cccc12` [P-C-109], < 1000 nM. Under `C[C@@H]1CN(C(=O)c2ccccc2)CCN1C(=O)C(=O)c1c[nH]c2c(NC(=O)NCCCCCCNC(=O)NCCOCCOCCN)cccc12` [P-C-111] stands < 1000 nM; under `C[C@@H]1CN(C(=O)c2ccccc2)CCN1C(=O)C(=O)c1c[nH]c2c(NC(=O)NCCCCNC(=O)Nc3cccc(B(O)O)c3)cccc12` [P-C-112], < 1000 nM; under `C[C@@H]1CN(C(=O)c2ccccc2)CCN1C(=O)C(=O)c1c[nH]c2c(NC(=O)NCCCCCCNC(=O)Nc3cccc(B(O)O)c3)cccc12` [P-C-113], < 1000 nM. In the case of `C[C@@H]1CN(C(=O)c2ccccc2)CCN1C(=O)C(=O)c1c[nH]c2c(NC(=O)NCCCCCCCCNC(=O)Nc3cccc(B(O)O)c3)cccc12` [P-C-114], the EC50 is < 1000 nM. As to `COC(=O)NCCCCNC(=O)Nc1cccc2c(C(=O)C(=O)N3CCN(C(=O)c4ccccc4)C[C@H]3C)cn(C(=O)NCCCCNC(=O)OC)c12` [P-C-115], the EC50 was < 1000 nM.

As to `C[C@@H]1CN(C(=O)c2ccccc2)CCN1C(=O)C(=O)c1c[nH]c2c(NC(=O)Nc3cccc(B(O)O)c3)cccc12` [P-C-202], the EC50 is < 1000 nM. The result for `C[C@@H]1CN(C(=O)c2ccccc2)CCN1C(=O)C(=O)c1c[nH]c2c(NC(=O)Nc3ccc(B(O)O)cc3)cccc12` [P-C-204] reads < 1000 nM. The result for `C[C@@H]1CN(C(=O)c2ccccc2)CCN1C(=O)C(=O)c1c[nH]c2c(NC(=O)NCCOCCOCCN)cccc12` [P-C-205] reads < 1000 nM; that for `C[C@@H]1CN(C(=O)c2ccccc2)CCN1C(=O)C(=O)c1c[nH]c2c(NC(=O)NCCOCCOCCNC(=O)c3cccc(B(O)O)c3)cccc12` [P-C-401], < 1000 nM; that for `C[C@@H]1CN(C(=O)c2ccccc2)CCN1C(=O)C(=O)c1c[nH]c2c(NC(=O)NCCOCCOCCNC(=O)c3ccc(B(O)O)cc3)cccc12` [P-C-402], < 1000 nM. Turning to `CC(C)COC(=O)Nc1cccc2c(C(=O)C(=O)N3CCN(C(=O)c4ccccc4)C[C@H]3C)c[nH]c12` [P-D-1], the EC50 was < 1000 nM. Regarding `C[C@@H]1CN(C(=O)c2ccccc2)CCN1C(=O)C(=O)c1c[nH]c2c(NS(C)(=O)=O)cccc12` [P-E-1], the EC50 is < 1000 nM. Under `C[C@@H]1CN(C(=O)c2ccccc2)CCN1C(=O)C(=O)c1cn(S(C)(=O)=O)c2c(NS(C)(=O)=O)cccc12` [P-E-2] stands < 1000 nM; under `Cc1ccc(S(=O)(=O)Nc2cccc3c(C(=O)C(=O)N4CCN(C(=O)c5ccccc5)C[C@H]4C)c[nH]c23)cc1` [P-E-3], 1000 to 5000 nM; under `Cc1ccc(S(=O)(=O)Nc2cccc3c(C(=O)C(=O)N4CCN(C(=O)c5ccccc5)C[C@H]4C)cn(S(=O)(=O)c4ccc(C)cc4)c23)cc1` [P-E-4], < 1000 nM. Take `C[C@@H]1CN(C(=O)c2ccccc2)CCN1C(=O)C(=O)c1c[nH]c2c(NS(=O)(=O)N(C)C)cccc12` [P-E-5]: the EC50 was < 1000 nM. Under `CC(C)/N=C(/Nc1cccc2c(C(=O)C(=O)N3CCN(C(=O)c4ccccc4)C[C@H]3C)c[nH]c12)NC(C)C` [P-F-1] stands < 1000 nM. Consider `CC/N=C(\NCCCN(C)C)Nc1cccc2c(C(=O)C(=O)N3CCN(C(=O)c4ccccc4)C[C@H]3C)c[nH]c12` [P-F-2], for which the EC50 was < 1000 nM. The result for `C[C@@H]1CN(C(=O)c2ccccc2)CCN1C(=O)C(=O)c1c[nH]c2c(N3CCN(CCCl)C3=O)cccc12` [P-G-1] reads < 1000 nM; that for `CC1NC(=O)N(c2cccc3c(C(=O)C(=O)N4CCN(C(=O)c5ccccc5)C[C@H]4C)c[nH]c23)C1=O` (stereo partly shown) [P-G-2], < 1000 nM. Under `CCOC(=O)CC[C@@H]1NC(=O)N(c2cccc3c(C(=O)C(=O)N4CCC(=C(C#N)c5ccccc5)CC4)c[nH]c23)C1=O` [P-G-3] stands < 1000 nM.

Take `CNCCN1CCN(c2cccc3c(C(=O)C(=O)N4CCN(C(=O)c5ccccc5)C[C@H]4C)c[nH]c23)C1=O` [P-H-1]: the EC50 is < 1000 nM. `C[C@@H]1CN(C(=O)c2ccccc2)CCN1C(=O)C(=O)c1c[nH]c2c(N3CCN(CCN(C)C)C3=O)cccc12` [P-H-2]: the EC50 was < 1000 nM. Turning to `CNCCCN(C)CCN1CCN(c2cccc3c(C(=O)C(=O)N4CCN(C(=O)c5ccccc5)C[C@H]4C)c[nH]c23)C1=O` [P-H-3], the EC50 was < 1000 nM. Under `C[C@@H]1CN(C(=O)c2ccccc2)CCN1C(=O)C(=O)c1c[nH]c2c(NC(=O)CO)cccc12` [P-I-1] stands < 1000 nM; under `C[C@@H]1CN(C(=O)c2ccccc2)CCN1C(=O)C(=O)c1c[nH]c2c(NC(=O)NCCC(=O)O)cccc12` [P-I-2], < 1000 nM. Under `N#CC(=C1CCN(C(=O)C(=O)c2c[nH]c3c(NC(=O)NCCC(=O)O)cccc23)CC1)c1ccccc1` [P-I-3] stands < 1000 nM.

With `C[C@@H]1CN(C(=O)c2ccccc2)CCN1C(=O)C(=O)c1c[nH]c2c(NC(=O)NCCCC(=O)O)cccc12` [P-I-4], the EC50 was < 1000 nM. For the molecule `N#CC(=C1CCN(C(=O)C(=O)c2c[nH]c3c(NC(=O)NCCCC(=O)O)cccc23)CC1)c1ccccc1` [P-I-5], the concentration giving a half-maximal response (EC50) is < 1000 nM. The result for `C[C@@H]1CN(C(=O)c2ccccc2)CCN1C(=O)C(=O)c1c[nH]c2c(NC(=O)NCCCCCC(=O)O)cccc12` [P-I-6] reads < 1000 nM. Under `N#CC(=C1CCN(C(=O)C(=O)c2c[nH]c3c(NC(=O)NCCCCCC(=O)O)cccc23)CC1)c1ccccc1` [P-I-7] stands < 1000 nM; under `N#CC(=C1CCN(C(=O)C(=O)c2c[nH]c3c(NC(=O)NC(CCC(=O)O)C(=O)O)cccc23)CC1)c1ccccc1` (stereo not shown) [P-I-8], < 1000 nM; under `C[C@@H]1CN(C(=O)c2ccccc2)CCN1C(=O)C(=O)c1c[nH]c2c(NC(=O)Nc3ccccc3C(=O)O)cccc12` [P-I-9], < 1000 nM.

For `N#CC(=C1CCN(C(=O)C(=O)c2c[nH]c3c(NC(=O)Nc4ccccc4C(=O)O)cccc23)CC1)c1ccccc1` [P-I-10], the EC50 was < 1000 nM. The result for `C[C@@H]1CN(C(=O)c2ccccc2)CCN1C(=O)C(=O)c1c[nH]c2c(NC(=O)Nc3cccc(C(=O)O)c3)cccc12` [P-I-11] reads < 1000 nM; that for `N#CC(=C1CCN(C(=O)C(=O)c2c[nH]c3c(NC(=O)Nc4cccc(C(=O)O)c4)cccc23)CC1)c1ccccc1` [P-I-12], < 1000 nM. Under `N#CC(=C1CCN(C(=O)C(=O)c2c[nH]c3c(NC(=O)Nc4ccc(C(=O)O)cc4)cccc23)CC1)c1ccccc1` [P-I-13] stands < 1000 nM; under `C[C@@H]1CN(C(=O)c2ccccc2)CCN1C(=O)C(=O)c1c[nH]c2c(NC(=O)Nc3cc(C(=O)O)cc(C(=O)O)c3)cccc12` [P-I-14], < 1000 nM; under `N#CC(=C1CCN(C(=O)C(=O)c2c[nH]c3c(NC(=O)Nc4cc(C(=O)O)cc(C(=O)O)c4)cccc23)CC1)c1ccccc1` [P-I-15], < 1000 nM. Under `O=C(O)CCCNC(=O)Nc1ncc(F)c2c(C(=O)C(=O)N3CCN(C(=O)c4ccccc4)CC3)c[nH]c12` [P-I-16] stands < 1000 nM. Consider `N#CC(=C1CCN(C(=O)C(=O)c2c[nH]c3c(N4C(=O)N[C@@H](CCC(=O)O)C4=O)cccc23)CC1)c1ccccc1` [P-I-17], for which the EC50 was < 1000 nM.

Regarding `C[C@@H]1CN(C(=O)c2ccccc2)CCN1C(=O)C(=O)c1c[nH]c2c(NC(=O)NCC(=O)O)cccc12` [P-I-18], the EC50 is < 1000 nM.
